Where two headings read alike, the source gives them in different places.
Tests used:
TZM-bl cell line = format: cell-based; conditions: 1 μM
How it was run: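 TZM-bl cells (HIV-1 LTR-luciferase) infected with HIV-1NL4-3 with compound at 1 μM; luciferase read 48 h later. Percent inhibition normalized to DMSO wild-type infection (0%) and Nef-defective HIV-1 infection (100% of Nef-dependent effect). Viability in uninfected TZM-bl cells by Cell Titer Blue.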

HIV-1NL4-3 = test: HIV-1 infectivity assay in TZM-bl reporter cell line (LTR-luciferase, 48 h); format: cell-based; conditions: for inhibition at 1 µM: Human immunodeficiency virus 1, TZM-bl
How it was run: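 TZM-bl cells infected with HIV-1NL4-3 ± compound (1 μM), luciferase measured at 48 h. Normalization: DMSO/wild-type = 0% inhibition, DMSO/Nef-defective = 100% of Nef-dependent effect.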

HIV-1 NefNL4-3 = HIV-1 NefNL4-3 (Human immunodeficiency virus type 1 group M subtype B, UniProt P03406, A33V/T15A/T51N/V11I); test: Surface plasmon resonance binding to recombinant full-length Nef (NL4-3); conditions: for RU30/RUNef (extent of binding): response units at 30 μM relative to Nef immobilized on the SPR chip
[1] = 1.0 μM, TZM-bl reporter cell line, Table 4, read-out: % Infectivity Inhibition
[2] = 48 h, Table 1, TZM-bl cells, 1 μM, 48 h, 100% = Nef-defective HIV-1, read-out: HIV-1 Infectivity % Inhibition Norm. to Δ-Nef @ 1 μM
[3] = KD, M, Table 4, SPR fit 2-step induced fit, KD = koff/kon × koff2/(koff2 + kon2)
[4] = Nef NL4-3 Binding, SPR 2-state fitting KD, Table 1, 2-step induced-fit model
[5] = Table 4, 2-step induced fit, T = 1/koff2
[6] = read-out: Nef NL4-3 Binding, SPR 1:1 or 2-site fitting KD2, Table 1, 2-site fit, second component
[7] = 48 h, Table 2, TZM-bl cells, 1 μM, 48 h, 100% = Nef-defective HIV-1, read-out: HIV-1 Infectivity % Inhibition Norm. to Δ-Nef @ 1 μM
[8] = Table 2, 1:1 Langmuir fit where the KD2 cell says '1 to 1 fitting', else 2-site fit
[9] = KD, M, Table 4, SPR fit 1:1 Langmuir, KD = koff/kon
[10] = Table 4, 1:1 Langmuir fit, T = 1/koff

Compound | % Cell Viability (TZM-bl cell line; human) [%] | Percent Viability @ 1 μM (TZM-bl cells) (TZM-bl cell line; human) [%] | inhibition at 1 µM (HIV-1NL4-3; [1]) [%] | inhibition at 1 µM (HIV-1NL4-3; [2]) [%] | Kd (HIV-1 NefNL4-3) [nM] | RU30/RUNef (extent of binding) (HIV-1 NefNL4-3) | inhibition at 1 µM (HIV-1NL4-3; [7]) [%] | Nef NL4-3 Binding, SPR 1:1 or 2-site fitting KD1 (HIV-1 NefNL4-3; [8]) | further results
Oc1c(CCC2CCNCC2)c(-c2ccc(C(F)(F)F)cc2)nn1-c1nc2ccccc2[nH]1 [Compound I-552, 1-(1H-1,3-benzodiazol-2-yl)-4-[2-(piperidin-4-yl)ethyl]-3-[4-(trifluoromethyl)phenyl]-1H-pyrazol-5-ol] | 91.4 | 91.4 | 50.5 | 50.5 | 554 | 1.04E- 02 |  |  | Kd (HIV-1 NefNL4-3; [3]): 1040 nM; Kd (HIV-1 NefNL4-3; [4]): 749 nM; T, minutes (residence time) (HIV-1 NefNL4-3; [5]): 2.17E + 01 minutes; Kd (HIV-1 NefNL4-3; [6]): 16500 nM
Oc1c(CCc2ccc(F)cc2)c(CC2CCNCC2)nn1-c1nc2ccccc2[nH]1 [Compound I-553, 1-(1H-1,3-benzodiazol-2-yl)-4-[2-(4-fluorophenyl)ethyl]-3-[(piperidin-4-yl)methyl]-1H-pyrazol-5-ol] |  | 62.3 |  | 74.3 | 1230 |  |  |  | 
Oc1c(CCC2CCNCC2)c(C2CC2)nn1-c1nc2cc(Cl)ccc2[nH]1 [Compound I-554, 1-(5-chloro-1H-1,3-benzodiazol-2-yl)-3-cyclopropyl-4-[2-(piperidin-4-yl)ethyl]-1H-pyrazol-5-ol] | 95.0 | 95.0 | 12.2 | 12.2 | 56.2 | 3.65E- 02 |  |  | Kd (HIV-1 NefNL4-3; [3]): 0.00315 nM; Kd (HIV-1 NefNL4-3; [4]): 0.00315 nM; T, minutes (residence time) (HIV-1 NefNL4-3; [5]): 3.33E + 06 minutes; Kd (HIV-1 NefNL4-3; [6]): 2130 nM
Oc1c(CCC2CCNCC2)c(-c2ccc(C(F)(F)F)cn2)nn1-c1nc2cc(Br)ccc2[nH]1 [Compound I-555, 1-(5-bromo-1H-1,3-benzodiazol-2-y1)-4-[2-(piperidin-4-yl)ethyl]-3-[5-(trifluoromethyl)pyridin-2-yl]-1H-pyrazol-5-ol] |  |  |  |  |  |  |  |  | Percent Viability @ 1 μM (TZM-bl cells) (TZM-bl cell line; Table 1, uninfected TZM-bl cells, Cell Titer Blue): 104.6%; HIV-1 Infectivity % Inhibition Norm. to Δ-Nef @ 1 μM (HIV-1NL4-3; Table 1, TZM-bl cells, 1 μM, 48 h, 100% = Nef-defective HIV-1): −118.0%; Kd (HIV-1 NefNL4-3; Table 1, 1:1 Langmuir fit where the KD2 cell says '1 to 1 fitting', else 2-site fit, read-out: Nef NL4-3 Binding, SPR 1:1 or 2-site fitting KD1): 875 nM
Oc1c(CCc2ccc(F)cc2)c(CC2CCCNC2)nn1-c1nc2ccccc2[nH]1 (stereo not drawn) [Compound I-556, 1-(1H-1,3-benzodiazol-2-yl)-4-[2-(4-fluorophenyl)ethyl]-3-[(piperidin-3-yl)methyl]-1H-pyrazol-5-ol] |  | 86.1 |  | 18.1 | 783 |  |  |  | 
Oc1c(CCc2ccc(F)cc2)c(-c2ccc(C(F)(F)F)cn2)nn1-c1cc(C(F)(F)F)n[nH]1 [Compound I-602, 4-[2-(4-fluorophenyl)ethyl]-5′-(trifluoromethyl)-3-[5-(trifluoromethyl)pyridin-2-yl]-2′H-[1,3′-bipyrazol]-5-ol] |  | 97.2 |  |  |  |  | 73.8 | No interaction | 
CS(=O)(=O)c1ccc(-c2nn(-c3cc(C(F)(F)F)n[nH]3)c(O)c2CCc2ccc(F)cc2)cc1 [Compound I-603, 4-[2-(4-fluorophenyl)ethyl]-3-(4-methanesulfonylphenyl)-5′-(trifluoromethyl)-2′H-[1,3′-bipyrazol]-5-ol] | 100 | 106.0 | 57.8 |  | 1830 | 1.19E- 02 | 57.8 |  | Kd (HIV-1 NefNL4-3; [3]): 35100 nM; Kd (HIV-1 NefNL4-3; Nef NL4-3 Binding, SPR 1:1 or 2-site fitting KD2, Table 2, 2-site fit, second component): 3600 nM; Kd (HIV-1 NefNL4-3; Nef NL4-3 Binding, SPR 2-state fitting KD, Table 2, 2-step induced-fit model): 58 nM; T, minutes (residence time) (HIV-1 NefNL4-3; [5]): 2.18E + 00 minutes
CS(=O)(=O)c1cccc(-c2nn(-c3cc(C(F)(F)F)n[nH]3)c(O)c2CCC2CCOCC2)c1 [Compound I-608, 3-(3-methanesulfonylphenyl)-4-[2-(oxan-4-yl)ethyl]-5′-(trifluoromethyl)-2′H-[1,3′-bipyrazol]-5-ol] |  | 101.2 |  |  |  |  | 5.3 | No interaction | 
CS(=O)(=O)c1ccc(-c2nn(-c3cc(C(F)(F)F)n[nH]3)c(O)c2CCC2CCOCC2)cc1 [Compound I-611, 3-(4-methanesulfonylphenyl)-4-[2-(oxan-4-yl)ethyl]-5′-(trifluoromethyl)-2′H-[1,3′-bipyrazol]-5-ol] |  | 99.6 |  |  |  |  | 65.7 | No interaction | 
Oc1c(CCc2ccncc2)c(-c2cccc(F)c2)nn1-c1cc(C(F)(F)F)n[nH]1 [Compound I-615, 3-(3-fluorophenyl)-4-[2-(pyridin-4-yl)ethyl]-5′-(trifluoromethyl)-2′H-[1,3′-bipyrazol]-5-ol] |  | 98.9 |  |  |  |  | 47.9 | No interaction | 
O=C(O)c1ccc(CCc2c(-c3ccccc3)nn(-c3cc(C(F)(F)F)n[nH]3)c2O)cc1 [Compound I-618, 4-{2-[5-hydroxy-3-phenyl-5′-(trifluoromethyl)-2′H-[1,3′-bipyrazol]-4-yl]ethyl}benzoic acid] |  | 93.8 |  |  |  |  | 0 | No interaction | 
Oc1c(CCc2ccc(F)cc2)c(-c2ccc(C(F)(F)F)cc2)nn1-c1cc(C2CC2)n[nH]1 [Compound I-619, 5′-cyclopropyl-4-[2-(4-fluorophenyl)ethyl]-3-[4-(trifluoromethyl)phenyl]-2′H-[1,3′-bipyrazol]-5-ol] |  | 105.5 |  |  |  |  | 0 | No interaction | 
Oc1c(CC2CCOCC2)c(C2CCOCC2)nn1-c1cc(C(F)(F)F)n[nH]1 [Compound I-621, 3-(oxan-4-yl)-4-[(oxan-4-yl)methyl]-5′-(trifluoromethyl)-2′H-[1,3′-bipyrazol]-5-ol] |  | 95.3 |  |  |  |  | 42.4 | No interaction | 
Oc1c(CC2CCOCC2)c(C2CC2)nn1-c1cc(C(F)(F)F)n[nH]1 [Compound I-622, 3-cyclopropyl-4-[(oxan-4-yl)methyl]-5′-(trifluoromethyl)-2′H-[1,3′-bipyrazol]-5-ol] |  | 98.5 |  |  |  |  | 4.9 | No interaction | 
Oc1c(CCc2ccc(F)cc2)c(C2CCOCC2)nn1-c1cc(C(F)(F)F)n[nH]1 [Compound I-623, 4-[2-(4-fluorophenyl)ethyl]-3-(oxan-4-yl)-5′-(trifluoromethyl)-2′H-[1,3′-bipyrazol]-5-ol] | 100 | 100.7 | 17.4 |  | 221000 | 1.67E- 02 | 17.4 |  | Kd (HIV-1 NefNL4-3; [9]): 221000 nM; T, minutes (residence time) (HIV-1 NefNL4-3; [10]): 2.88E + 00 minutes
CC(=O)N1CCC(c2nn(-c3nc4cc(Cl)ccc4[nH]3)c(O)c2CCC2CCOCC2)CC1 [Compound I-703, 1-{4-[1-(5-chloro-1H-1,3-benzodiazol-2-yl)-5-hydroxy-4-[2-(oxan-4-yl)ethyl]-1H-pyrazol-3-yl]piperidin-1-yl}ethan-1-one] |  | 99.2 |  | -8.1 | 1540 |  |  |  | 
CC(=O)N1CCC(c2nn(-c3nc4cc(Cl)ccc4[nH]3)c(O)c2CCn2nccn2)CC1 [Compound I-704, 1-{4-[1-(5-chloro-1H-1,3-benzodiazol-2-yl)-5-hydroxy-4-[2-(2H-1,2,3-triazol-2-yl)ethyl]-1H-pyrazol-3-yl]piperidin-1-yl}ethan-1-one] | 99.4 | 99.4 | 6.6 | 6.6 | 3620 | 1.92E- 03 |  |  | Kd (HIV-1 NefNL4-3; [9]): 3620 nM; T, minutes (residence time) (HIV-1 NefNL4-3; [10]): 7.61E + 00 minutes
COC(=O)N1CCC(c2nn(-c3nc4cc(Cl)ccc4[nH]3)c(O)c2CCn2nccn2)CC1 [Compound I-705, methyl 4-[1-(5-chloro-1H-1,3-benzodiazol-2-yl)-5-hydroxy-4-[2-(2H-1,2,3-triazol-2-yl)ethyl]-1H-pyrazol-3-yl]piperidine-1-carboxylate] |  | 100.9 |  | -13.8 | 1110 |  |  |  | 
CS(=O)(=O)N1CCC(c2nn(-c3nc4cc(Cl)ccc4[nH]3)c(O)c2CCC2CCOCC2)CC1 [Compound I-706, 1-(5-chloro-1H-1,3-benzodiazol-2-yl)-3-(1-methanesulfonylpiperidin-4-yl)-4-[2-(oxan-4-yl)ethyl]-1H-pyrazol-5-ol] | 98.6 | 98.6 | 9.8 | 9.8 | 1170 | 2.34E- 03 |  |  | Kd (HIV-1 NefNL4-3; [9]): 1170 nM; T, minutes (residence time) (HIV-1 NefNL4-3; [10]): 3.95E + 00 minutes

Reference: patent US20220380341A1, “INHIBITORS OF HIV-1 NEF FOR THE TREATMENT OF HIV DISEASE” (priority 2018, published 2022)
